Target: T1, GST-tagged truncated human mutant G2019S LRRK2 (Homo sapiens, UniProt Q5S007, G2019S)
T1 construct: GST-tagged truncated human mutant G2019S LRRK2; purchased Life Technologies Corporation (Carlsbad, CA)
Test: LRRK2 G2019S Km ATP LanthaScreen assay
Assay type: biochemical
Conditions: 134 μM ATP (Km ATP), LRRKtide substrate, mean of several tests
Experimental: Unless otherwise noted, all reactions are magnetically stirred. Unless otherwise noted, when diethyl ether is used in the experiments described below, it is Fisher ACS certified material and is stabilized with BHT. Unless otherwise noted, “concentrated” and/or “solvent removed under reduced pressure” means evaporating the solvent from a solution or mixture using a rotary evaporator or vacuum pump. Unless otherwise noted, flash chromatography is carried out on a Teledyne Isco (Lincoln, NE), Analogix (Burlington, WI), or Biotage (Stockholm, SWE) automated chromatography system using a commercially available cartridge as the column. Columns may be purchased from Teledyne Isco, Analogix, Biotage, Varian (Palo Alto, CA), or Supelco (Bellefonte, PA) and are usually filled with silica gel as the stationary phase. Reverse phase prep-HPLC conditions, where used, can be found at the end of each experimental section. Aqueous solutions were concentrated on a Genevac (Ipswich, ENG) or by freeze-drying/lyophilization. Unless otherwise noted, all LRRK2 pIC50 data presented in tables refers to the LRRK2 G2019S Km ATP LanthaScreen™ assay (Life Technologies Corp., Carlsbad, CA) that is described in the Biological Assay section.
Biological Assay: LRRK2 Km ATP LanthaScreen™ Assay
The LRRK2 kinase activity reported herein as IC50 values was determined with LanthaScreen™ technology from Life Technologies Corporation (Carlsbad, CA) using GST-tagged truncated human mutant G2019S LRRK2 in the presence of the fluorescein-labeled peptide substrate LRRKtide, also from Life Technologies. The data presented for the Km ATP LanthaScreen™ Assay represents mean IC50 values based on several test results and may have reasonable deviations depending on the specific conditions and reagents used. Assays were performed in the presence of 134 μM ATP (Km ATP). Upon completion, the assay was stopped and phosphorylated substrate detected with a terbium (Tb)-labeled anti-pERM antibody (cat. no. PV4898). The compound dose response was prepared by diluting a 10 mM stock of compound to a maximum concentration of 9.99 μM in 100% dimethylsulfoxide followed by custom fold serial dilution in dimethylsulfoxide nine times. Twenty nanoliters of each dilution was spotted via a Labcyte Echo onto a 384-well black-sided plate (Corning 3575) followed by 15 μl of a 1.25 nM enzyme solution in 1× assay buffer (50 mM Tris pH 8.5, 10 mM MgCl2, 0.01% Brij-35, 1 mM EGTA, 2 mM dithiothreitol, 0.05 mM sodium orthovanadate). Following a 15-minute incubation at room temperature, the kinase reaction was started with the addition of 5 μl of 400 nM fluorescein-labeled LRRKtide peptide substrate and 134 μM ATP solution in 1× assay buffer. The reaction was allowed to progress at ambient temperature for 90 minutes. The reaction was then stopped by the addition of 20 μl of TR-FRET Dilution Buffer (Life Technologies, Carlsbad, CA) containing 2 nM Tb-labeled anti-phospho LRRKtide antibody and 10 mM EDTA (Life Technologies, Carlsbad, CA). After an incubation of 1 hour at room temperature, the plate was read on an EnVision multimode plate reader (Perkin Elmer, Waltham, MA) with an excitation wavelength of 337 nm (Laser) and a reading emission at both 520 and 495 nm. Compound IC50s were interpolated from nonlinear regression best fits of the log of the final compound concentration, plotted as a function of the 520/495-nm emission ratio using Activity base. Abase uses a 4 parameter (4P) logistic fit based on the Levenberg-Marquardt algorithm.

T1 sequence (Q5S007 970-2527 G2019S limits assumed): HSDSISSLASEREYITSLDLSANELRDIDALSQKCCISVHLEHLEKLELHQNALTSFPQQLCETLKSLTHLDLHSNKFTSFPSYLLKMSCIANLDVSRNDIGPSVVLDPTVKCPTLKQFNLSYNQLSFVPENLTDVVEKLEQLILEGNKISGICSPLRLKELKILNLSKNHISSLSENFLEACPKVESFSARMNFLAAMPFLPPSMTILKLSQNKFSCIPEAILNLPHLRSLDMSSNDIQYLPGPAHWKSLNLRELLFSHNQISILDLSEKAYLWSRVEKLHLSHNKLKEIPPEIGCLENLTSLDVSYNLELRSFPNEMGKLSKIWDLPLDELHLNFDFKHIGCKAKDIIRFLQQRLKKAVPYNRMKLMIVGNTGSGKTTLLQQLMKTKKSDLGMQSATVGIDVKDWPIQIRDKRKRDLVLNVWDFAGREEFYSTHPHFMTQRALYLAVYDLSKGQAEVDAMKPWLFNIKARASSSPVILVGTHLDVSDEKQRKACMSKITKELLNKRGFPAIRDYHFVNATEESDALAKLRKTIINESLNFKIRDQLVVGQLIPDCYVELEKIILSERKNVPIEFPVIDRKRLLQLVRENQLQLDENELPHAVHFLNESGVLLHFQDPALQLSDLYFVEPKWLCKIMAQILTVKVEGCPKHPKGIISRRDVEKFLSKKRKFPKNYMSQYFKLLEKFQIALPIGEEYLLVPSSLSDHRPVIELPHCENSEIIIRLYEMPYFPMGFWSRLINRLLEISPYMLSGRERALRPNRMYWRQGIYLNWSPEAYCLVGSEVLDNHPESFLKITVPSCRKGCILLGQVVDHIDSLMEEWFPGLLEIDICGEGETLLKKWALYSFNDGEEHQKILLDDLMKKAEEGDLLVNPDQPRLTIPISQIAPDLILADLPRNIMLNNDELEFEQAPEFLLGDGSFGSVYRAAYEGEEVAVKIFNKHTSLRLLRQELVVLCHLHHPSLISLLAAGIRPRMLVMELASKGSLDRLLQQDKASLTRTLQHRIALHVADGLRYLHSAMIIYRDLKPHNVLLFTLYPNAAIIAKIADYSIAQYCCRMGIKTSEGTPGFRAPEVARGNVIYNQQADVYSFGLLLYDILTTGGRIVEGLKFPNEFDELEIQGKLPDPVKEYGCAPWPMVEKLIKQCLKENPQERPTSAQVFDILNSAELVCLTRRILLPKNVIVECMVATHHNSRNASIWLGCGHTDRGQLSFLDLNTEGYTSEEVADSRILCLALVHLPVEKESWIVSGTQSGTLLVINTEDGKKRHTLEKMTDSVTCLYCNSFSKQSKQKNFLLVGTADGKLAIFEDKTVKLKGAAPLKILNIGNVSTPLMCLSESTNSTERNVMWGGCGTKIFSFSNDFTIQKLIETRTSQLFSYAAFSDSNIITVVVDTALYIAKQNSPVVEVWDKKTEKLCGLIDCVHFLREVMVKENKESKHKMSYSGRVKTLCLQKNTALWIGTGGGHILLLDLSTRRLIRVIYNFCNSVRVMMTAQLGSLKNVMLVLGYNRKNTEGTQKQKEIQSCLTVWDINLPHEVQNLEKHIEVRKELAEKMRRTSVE

Compound | LRRK2 pIC50
Cc1cc2cnc(NC(=O)C3CC3c3ccccn3)cc2cc1N1CCN(C2(C)COCC2F)CC1 (stereo not drawn) [Ex-9.19] | 10.09

Same assay, conditions: 134 μM ATP (Km ATP), LRRKtide substrate, mean of several tests, read-out: LRRK2 pIC50 (converted)

Compound | IC50
O=C(Nc1cc2cc(N3CCN(C4COCC4O)CC3)c(Cl)cc2cn1)C1CC12CCOCC2 (single isomer, unassigned) [Ex-2.5, (R or S)-N-(7-chloro-6-(4-((3R,4R or 3S,4S)-4-hydroxytetrahydrofuran-3-yl)piperazin-1-yl)isoquinolin-3-yl)-6-oxaspiro[2.5]octane-1-carboxamide] | 41.7 nM
CC1(N2CCN(c3cc4cc(NC(=O)C5CC5c5ccccn5)ncc4cc3F)CC2)COCC1O (single isomer, unassigned) [Ex-2.23, (1R,2R or 1S,2S)-N-[7-fluoro-6-[4-[(3R,4R or 3S,4S)-4-hydroxy-3-methyl-tetrahydrofuran-3-yl]piperazin-1-yl]-3-isoquinolyl]-2-(2-pyridyl)cyclopropanecarboxamide] | 0.316 nM
CC1(N2CCN(c3cc4cc(NC(=O)C5CCC5c5ccccn5)ncc4cc3Cl)CC2)COCC1O (single isomer, unassigned) [Ex-11.6, (1R,2R or 1S,2S)-N-(7-chloro-6-(4-((3R,4R or 3S,4S)-4-hydroxy-3-methyltetrahydrofuran-3-yl)piperazin-1-yl)isoquinolin-3-yl)-2-(pyridin-2-yl)cyclobutane-1-carboxamide] | 0.132 nM
CCOC1CC1C(=O)Nc1cc2cc(N3CCN(C4(C)COCC4O)CC3)c(Cl)cc2cn1 (single isomer, unassigned) [Ex-10.11] | 0.851 nM
CC1(N2CCN(c3cc4cc(NC(=O)C5CC5c5cccs5)ncc4cc3Cl)CC2)COCC1O (single isomer, unassigned) [Ex-10.13, (1R,2R or 1R,2S)-N-[7-chloro-6-[4-((3R,4R or 3S,4S)-4-hydroxy-3-methyl-tetrahydrofuran-3-yl)piperazin-1-yl]-3-isoquinolyl]-2-(2-thienyl)cyclopropanecarboxamide] | 0.0813 nM
CC1(C)OCCC1C(=O)Nc1cc2cc(N3CCN(C4(C)COCC4O)CC3)c(Cl)cc2cn1 (single isomer, unassigned) [Ex-1.23, (R or S)-N-(7-chloro-6-(1-((3R,4R or 3S,4S)-4-hydroxy-3-methyltetrahydrofuran-3-yl)piperazin-4-yl)isoquinolin-3-yl)-2,2-dimethyltetrahydrofuran-3-carboxamide] | 7.41 nM
CC1(N2CCN(c3cc4cc(NC(=O)C5CC5)ncc4cc3F)CC2)COCC1O (single isomer, unassigned) [Ex-1.6, (3R,4R or 3S,4S)-N-(7-fluoro-6-(4-(4-hydroxy-3-methyltetrahydrofuran-3-yl)piperazin-1-yl)isoquinolin-3-yl)cyclopropanecarboxamide] | 912 nM
CC1C(C(=O)Nc2cc3cc(N4CCN(C5(C)CCOC5)CC4)c(Cl)cc3cn2)C1c1cnn(C)c1 (single isomer, unassigned) [Ex-9.8] | 4.9 nM
CC1(N2CCN(c3cc4cc(NC(=O)C5CC56CCCOC6)ncc4cc3Cl)CC2)COCC1O (single isomer, unassigned) [Ex-1.13, (1R,3S, or 1R,3R, or 1S,3S, or 1S,3R)-N-(7-chloro-6-(4-((3R,4R or 3S,4S)-4-hydroxy-3-methyltetrahydrofuran-3-yl)piperazin-1-yl)isoquinolin-3-yl)-5-oxaspiro[2.5]octane-1-carboxamide] | 275 nM
Cc1cc2cnc(NC(=O)C3C4CCOCC43)cc2cc1N1CCN(C2(C)CCOC2)CC1 (single isomer, unassigned) [Ex-10.45, (1S,6R,7R, 1R,6S,7R, or 1R, 6S,7S, or 1S,6S,7S)-N-(7-methyl-6-(4-((R or S)-3-methyltetrahydrofuran-3-yl)piperazin-1-yl)isoquinolin-3-yl)-3-oxabicyclo[4.1.0]heptane-7-carboxamide] | 0.145 nM

Reference: patent publication US12516039B2, “N-linked isoquinoline amides as LRRK2 inhibitors, pharmaceutical compositions, and uses thereof” (Merck Sharp & Dohme LLC, priority 2020, dated 2026)
